Measurements taken from US20260116845A1, “LIPIDS AND COMPOSITIONS THEREOF” (Kernal Biologics, Inc., priority 2023, published 2026).

Legend:
MC38.K Cell Line = assay: Transfection of MC38.K Cell Line with FLuc mRNA LNPs (ONE-Glo EX luciferase signal); assay type: cell-based; details: 200 ng Fluc mRNA-LNP, 24 hours; for Total Luciferin Signal (RLU) In Vitro - MC38.K: Table 4; for Total Luciferin Signal (RLU) In Vitro-MC38: Table 5
Outline: (§1)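 Firefly luciferase luminescence measured 24 h after transfection with 200 ng mRNA-LNP per well in Opti-MEM. Seeding: 5,000 cells/well for B16F10 and MC38.K, 20,000 for AML12. LNPs were pre-incubated 30 min with mouse serum; mRNA content determined by RiboGreen.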

B16F10 Cell Line = assay: Transfection of B16F10 Cell Line with FLuc mRNA LNPs (ONE-Glo EX luciferase signal); assay type: cell-based; details: 200 ng Fluc mRNA-LNP, 24 hours
Outline: as §1

AML12 Cell Line = assay: Transfection of AML12 Cell Line with FLuc mRNA LNPs (ONE-Glo EX luciferase signal); assay type: cell-based; details: 200 ng Fluc mRNA-LNP, 24 hours
Outline: as §1

Liver = assay: Ex-vivo luminescence signal from liver after IV Fluc mRNA LNPs in CD1 mice (IVIS); details: tail vein 1.0 mg/kg Day 0 and Day 2, imaging 18 hours after second dose; for Total Liver Tissue Luciferin Signal (Photons/s) Ex-vivo - CD1: Table 4; for Total Liver Tissue Luciferin Signal (Photons/s) In Vivo-Cd1: Table 5
Spleen = assay: Ex-vivo luminescence signal from spleen after IV Fluc mRNA LNPs in CD1 mice (IVIS); details: tail vein 1.0 mg/kg Day 0 and Day 2, imaging 18 hours after second dose, Table 5

CCCCCCCCCOC(=O)C(C)CCCCCCN(CCCCO)CCCCCCCC(=O)OC(CCCCCCCC)CCCCCCCC (stereo not shown) [Compound 62, nonyl 8-((8-(heptadecan-9-yloxy)-8-oxooctyl)(4-hydroxybutyl)amino)-2-methyloctanoate]
Total Luciferin Signal (RLU) In Vitro - MC38.K (MC38.K Cell Line): 3.47E+07 RLU
Total Luciferin Signal (RLU) In Vitro - B16F10 (B16F10 Cell Line; Table 4): 2.73E+06 RLU
Total Luciferin Signal (RLU) In Vitro - AML12 (AML12 Cell Line; Table 4): 2.33E+06 RLU
Total Liver Tissue Luciferin Signal (Photons/s) Ex-vivo - CD1 (Liver): 1.03E+10 Photons/s

CCCCCCCCC(CCCCCCCCF)OC(=O)CCCCCN(CCCCO)CCCCCC(=O)OCCCCCCCCCCC(C)C (stereo not shown) [Compound 63, 1-fluoroheptadecan-9-yl 6-((4-hydroxybutyl)(6-((11-methyldodecyl)oxy)-6-oxohexyl)amino)hexanoate]
Total Luciferin Signal (RLU) In Vitro - MC38.K (MC38.K Cell Line): 1.35E+07 RLU
Total Luciferin Signal (RLU) In Vitro - B16F10 (B16F10 Cell Line; Table 4): 6.91E+05 RLU
Total Luciferin Signal (RLU) In Vitro - AML12 (AML12 Cell Line; Table 4): 5.69E+05 RLU
Total Liver Tissue Luciferin Signal (Photons/s) Ex-vivo - CD1 (Liver): 3.02E+09 Photons/s

CCCCCCCCC(CCCCCCCCF)OC(=O)CCCCCN(CCCCO)CCCCC(C)C(=O)OCCCCCCCCCCC(C)C (stereo not shown) [Compound 64, 11-methyldodecyl 6-((6-((1-fluoroheptadecan-9-yl)oxy)-6-oxohexyl)(4-hydroxybutyl)amino)-2-methylhexanoate]
Total Luciferin Signal (RLU) In Vitro - MC38.K (MC38.K Cell Line): 2.41E+07 RLU
Total Luciferin Signal (RLU) In Vitro - B16F10 (B16F10 Cell Line; Table 4): 1.10E+06 RLU
Total Luciferin Signal (RLU) In Vitro - AML12 (AML12 Cell Line; Table 4): 1.02E+06 RLU
Total Liver Tissue Luciferin Signal (Photons/s) Ex-vivo - CD1 (Liver): 4.39E+09 Photons/s

CCCCCCCCC(CCCCCCCCF)OC(=O)CCCCCN(CCO)CCCCC(C)C(=O)OCCCCCCCCCCC(C)C (stereo not shown) [Compound 65, 11-methyldodecyl 6-((6-((1-fluoroheptadecan-9-yl)oxy)-6-oxohexyl)(2-hydroxyethyl)amino)-2-methylhexanoate]
Total Luciferin Signal (RLU) In Vitro - MC38.K (MC38.K Cell Line): 3.81E+06 RLU
Total Luciferin Signal (RLU) In Vitro - B16F10 (B16F10 Cell Line; Table 4): 3.78E+05 RLU
Total Luciferin Signal (RLU) In Vitro - AML12 (AML12 Cell Line; Table 4): 3.24E+05 RLU
Total Liver Tissue Luciferin Signal (Photons/s) Ex-vivo - CD1 (Liver): 4.01E+09 Photons/s

CCCCCCCCC(CCCCCCCCF)OC(=O)CCCCCCCN(CCO)CCCCCCC(C)C(=O)OCCCCCCCCC(C)C (stereo not shown) [Compound 66, 9-methyldecyl 8-((8-((1-fluoroheptadecan-9-yl)oxy)-8-oxooctyl)(2-hydroxyethyl)amino)-2-methyloctanoate]
Total Luciferin Signal (RLU) In Vitro - MC38.K (MC38.K Cell Line): 5.75E+06 RLU
Total Luciferin Signal (RLU) In Vitro - B16F10 (B16F10 Cell Line; Table 4): 1.12E+06 RLU
Total Luciferin Signal (RLU) In Vitro - AML12 (AML12 Cell Line; Table 4): 1.16E+06 RLU
Total Liver Tissue Luciferin Signal (Photons/s) Ex-vivo - CD1 (Liver): 9.44E+09 Photons/s

CCCCCCCCC(CCCCCCCCF)C(=O)OCCCCCCCN(CCCCO)CCCCCCCOC(=O)CCCCCCCCC(C)C (stereo not shown) [Compound 69, 7-((7-((10-fluoro-2-octyldecanoyl)oxy)heptyl)(4-hydroxybutyl)amino)heptyl 10-methylundecanoate]
Total Luciferin Signal (RLU) In Vitro - MC38.K (MC38.K Cell Line): 4.67E+07 RLU
Total Luciferin Signal (RLU) In Vitro - B16F10 (B16F10 Cell Line; Table 4): 3.62E+06 RLU
Total Luciferin Signal (RLU) In Vitro - AML12 (AML12 Cell Line; Table 4): 8.05E+06 RLU
Total Liver Tissue Luciferin Signal (Photons/s) Ex-vivo - CD1 (Liver): 4.64E+09 Photons/s

CCCCCCCCC(CCCCCCCCF)OC(=O)CCCCCN(CCO)CCCCCC(=O)OCCCCCCCCCCC(C)C (stereo not shown) [Compound 70, 1-fluoroheptadecan-9-yl 6-((2-hydroxyethyl)(6-((11-methyldodecyl)oxy)-6-oxohexyl)amino)hexanoate]
Total Luciferin Signal (RLU) In Vitro - MC38.K (MC38.K Cell Line): 5.15E+06 RLU
Total Luciferin Signal (RLU) In Vitro - B16F10 (B16F10 Cell Line; Table 4): 7.68E+05 RLU
Total Luciferin Signal (RLU) In Vitro - AML12 (AML12 Cell Line; Table 4): 7.41E+05 RLU
Total Liver Tissue Luciferin Signal (Photons/s) Ex-vivo - CD1 (Liver): 4.87E+09 Photons/s

CCCCCCCCCOC(=O)CCCCCCCN(CCCCO)CCCCCCCC(=O)OCC(CCCCCC)CCCCCCCCF (stereo not shown) [Compound 71, 10-fluoro-2-hexyldecyl 8-((4-hydroxybutyl)(8-(nonyloxy)-8-oxooctyl)amino)octanoate]
Total Luciferin Signal (RLU) In Vitro - MC38.K (MC38.K Cell Line): 1.57E+07 RLU
Total Luciferin Signal (RLU) In Vitro - B16F10 (B16F10 Cell Line; Table 4): 1.67E+06 RLU
Total Luciferin Signal (RLU) In Vitro - AML12 (AML12 Cell Line; Table 4): 4.77E+06 RLU
Total Liver Tissue Luciferin Signal (Photons/s) Ex-vivo - CD1 (Liver): 1.75E+09 Photons/s

CCCCCCCCCOC(=O)CCCCCCCN(CCO)CCCCCCCC(=O)OCC(CCCCCC)CCCCCCCCF (stereo not shown) [Compound 72, 10-fluoro-2-hexyldecyl 8-((2-hydroxyethyl)(8-(nonyloxy)-8-oxooctyl)amino)octanoate]
Total Luciferin Signal (RLU) In Vitro - MC38.K (MC38.K Cell Line): 5.53E+06 RLU
Total Luciferin Signal (RLU) In Vitro - B16F10 (B16F10 Cell Line; Table 4): 7.23E+05 RLU
Total Luciferin Signal (RLU) In Vitro - AML12 (AML12 Cell Line; Table 4): 2.78E+06 RLU
Total Liver Tissue Luciferin Signal (Photons/s) Ex-vivo - CD1 (Liver): 3.60E+09 Photons/s

CCCCCCCCCCCCC1CN(CCO)CC(CCCCCCCCCCCC)O1 (stereo not shown) [Compound 90, 2-(2,6-didodecylmorpholino)ethan-1-ol]
Total Luciferin Signal (RLU) In Vitro - B16F10 (B16F10 Cell Line; Table 5): 8.93E+04 RLU
Total Luciferin Signal (RLU) In Vitro - AML12 (AML12 Cell Line; Table 5): 2.69E+04 RLU
Total Spleen Tissue Luciferin Signal (Photons/s) In Vivo-Cd1 (Spleen): 5.69E+05 Photons/s
Total Liver Tissue Luciferin Signal (Photons/s) In Vivo-Cd1 (Liver): 3.35E+06 Photons/s

CCCCCCCC/C=C\CCCCCCC1CN(CCO)CC(CCCCCCCCCCCC)O1 (stereo not shown) [Compound 91, (Z)-2-(2-dodecyl-6-(hexadec-7-en-1-yl)morpholino)ethan-1-ol]
Total Luciferin Signal (RLU) In Vitro - B16F10 (B16F10 Cell Line; Table 5): 2.02E+05 RLU
Total Luciferin Signal (RLU) In Vitro - AML12 (AML12 Cell Line; Table 5): 1.94E+04 RLU
Total Spleen Tissue Luciferin Signal (Photons/s) In Vivo-Cd1 (Spleen): 1.44E+06 Photons/s
Total Liver Tissue Luciferin Signal (Photons/s) In Vivo-Cd1 (Liver): 3.65E+06 Photons/s

CCCCCCCC/C=C\CCCCCCC1CN(CCO)CC(CCCCCC/C=C\CCCCCCCC)O1 (stereo not shown) [Compound 92, 2-(2,6-di((Z)-hexadec-7-en-1-yl)morpholino)ethan-1-ol]
Total Luciferin Signal (RLU) In Vitro - B16F10 (B16F10 Cell Line; Table 5): 8.03E+05 RLU
Total Luciferin Signal (RLU) In Vitro - AML12 (AML12 Cell Line; Table 5): 2.46E+04 RLU
Total Spleen Tissue Luciferin Signal (Photons/s) In Vivo-Cd1 (Spleen): 2.05E+06 Photons/s
Total Liver Tissue Luciferin Signal (Photons/s) In Vivo-Cd1 (Liver): 1.07E+07 Photons/s

CCCCCCCC/C=C\CCCCCCC1CN(CCOC(=O)CCCN(C)C)CC(CCCCCC/C=C\CCCCCCCC)O1 (stereo not shown) [Compound 93, 2-{2,6-bis[(Z)-7-hexadecenyl]-4-morpholinyl}ethyl 4-(dimethylamino)butyrate]
Total Luciferin Signal (RLU) In Vitro-MC38 (MC38.K Cell Line): 3.69E+05 RLU
Total Luciferin Signal (RLU) In Vitro - B16F10 (B16F10 Cell Line; Table 5): 4.80E+05 RLU
Total Luciferin Signal (RLU) In Vitro - AML12 (AML12 Cell Line; Table 5): 3.05E+07 RLU
Total Spleen Tissue Luciferin Signal (Photons/s) In Vivo-Cd1 (Spleen): 2.48E+06 Photons/s
Total Liver Tissue Luciferin Signal (Photons/s) In Vivo-Cd1 (Liver): 1.72E+06 Photons/s

CCCCCCCC/C=C\CCCCCCC1CN(CCOC(=O)CCCN(C)C)CC(CCCCCC(=O)OC(CCCCCCCC)CCCCCCCC)O1 (stereo not shown) [Compound 94, heptadecan-9-yl (Z)-6-(4-(2-((4-(dimethylamino)butanoyl)oxy)ethyl)-6-(hexadec-7-en-1-yl)morpholin-2-yl)hexanoate]
Total Luciferin Signal (RLU) In Vitro-MC38 (MC38.K Cell Line): 1.75E+06 RLU
Total Luciferin Signal (RLU) In Vitro - B16F10 (B16F10 Cell Line; Table 5): 2.82E+06 RLU
Total Luciferin Signal (RLU) In Vitro - AML12 (AML12 Cell Line; Table 5): 1.41E+06 RLU
Total Spleen Tissue Luciferin Signal (Photons/s) In Vivo-Cd1 (Spleen): 1.22E+07 Photons/s
Total Liver Tissue Luciferin Signal (Photons/s) In Vivo-Cd1 (Liver): 1.30E+07 Photons/s

CCCCCCCC/C=C\CCCCCCC1CN(CCOC(=O)CCN(C)C)CC(CCCCCC/C=C\CCCCCCCC)O1 (stereo not shown) [Compound 95, 2-(2,6-di((Z)-hexadec-7-en-1-yl)morpholino)ethyl 3-(dimethylamino)propanoate]
Total Luciferin Signal (RLU) In Vitro-MC38 (MC38.K Cell Line): 7.12E+04 RLU
Total Luciferin Signal (RLU) In Vitro - B16F10 (B16F10 Cell Line; Table 5): 2.09E+05 RLU
Total Luciferin Signal (RLU) In Vitro - AML12 (AML12 Cell Line; Table 5): 1.49E+05 RLU
Total Spleen Tissue Luciferin Signal (Photons/s) In Vivo-Cd1 (Spleen): 2.69E+06 Photons/s
Total Liver Tissue Luciferin Signal (Photons/s) In Vivo-Cd1 (Liver): 2.92E+06 Photons/s

CCCCCCCC/C=C\CCCCCCC1CN(CCCOC(=O)CCN(C)C)CC(CCCCCC/C=C\CCCCCCCC)O1 (stereo not shown) [Compound 96, 3-(2,6-di((Z)-hexadec-7-en-1-yl)morpholino)propyl 3-(dimethylamino)propanoate]
Total Luciferin Signal (RLU) In Vitro-MC38 (MC38.K Cell Line): 1.25E+05 RLU
Total Luciferin Signal (RLU) In Vitro - B16F10 (B16F10 Cell Line; Table 5): 1.16E+05 RLU
Total Luciferin Signal (RLU) In Vitro - AML12 (AML12 Cell Line; Table 5): 1.49E+05 RLU
Total Spleen Tissue Luciferin Signal (Photons/s) In Vivo-Cd1 (Spleen): 6.35E+06 Photons/s
Total Liver Tissue Luciferin Signal (Photons/s) In Vivo-Cd1 (Liver): 4.34E+06 Photons/s

CCCCCCCC/C=C\CCCCCCC1CN(CCOC(=O)CCN(C)C)CC(CCCCCC(=O)OC(CCCCCCCC)CCCCCCCC)O1 (stereo not shown) [Compound 97, heptadecan-9-yl (Z)-6-(4-(2-((3-(dimethylamino)propanoyl)oxy)ethyl)-6-(hexadec-7-en-1-yl)morpholin-2-yl)hexanoate]
Total Luciferin Signal (RLU) In Vitro-MC38 (MC38.K Cell Line): 6.42E+05 RLU
Total Luciferin Signal (RLU) In Vitro - B16F10 (B16F10 Cell Line; Table 5): 2.98E+06 RLU
Total Luciferin Signal (RLU) In Vitro - AML12 (AML12 Cell Line; Table 5): 2.58E+05 RLU
Total Spleen Tissue Luciferin Signal (Photons/s) In Vivo-Cd1 (Spleen): 1.60E+07 Photons/s
Total Liver Tissue Luciferin Signal (Photons/s) In Vivo-Cd1 (Liver): 2.08E+08 Photons/s
